From US11919898B2, “Crystal form of azaindole derivative and use thereof” (Wuxi Life Fountain Biotech Co., Ltd, priority 2020, dated 2024)
Where “and” joins values, the source holds several entries; their conditions need not be identical. Identical values can stand only once.

Legend:
[1] = Hygroscopicity test by dynamic vapor sorption (DVS); assay type: physicochemical; details: for ΔW, hygroscopic weight gain: 25° C. and 80% RH, DVS; for Classification of hygroscopicity: 25° C./80% RH
Protocol: Dynamic Vapor Sorption (DVS) of the Present Invention • Instrument model: SMS DVS Intrinsic Dynamic Vapor Sorption Analyzer • Test method: A sample (10-30 mg) is tested in a DVS sample pan. Detailed DVS Parameters: • Temperature: 25° C. • Equilibration: dm/dt=0.002%/min (Minimum: 10 min, Maximum: 180 min) • RH (%) test interval: 10 (0-90%), 5 (90-95%) • RH (%) test interval range: 0-95-0 Hygroscopicity evaluations are classified as follows: [table] Note: AW % represents the hygroscopic weight gain of the test product at 25° C./80% RH. Experimental Method: • 10-30 mg of the crystal form A of the compound of Formula (II) was placed in the DVS sample pan and tested. Experimental Method: • 10-30 mg of the crystal form G of the compound of Formula (III) was placed in the DVS sample pan and tested. Experimental Method: • 10-30 mg of the crystal form J of the compound of Formula (IV) was placed in the DVS sample pan and tested.

[2] = Stability comparison of crystal form A and crystal form B (slurry in ethanol, XRPD); assay type: physicochemical; details: stirred in ethanol for 16 hrs
From the text: 35 g of the crystal form B of the compound of Formula (II) was weighed, added to ethanol, and stirred for 16 hrs.

Row | SMILES | ΔW, hygroscopic weight gain [1] | Classification of hygroscopicity [1] | Crystal form conversion (XRPD) [2]
1 | COc1cc(OC)c(F)c(Cc2c[nH]c3ncc(-c4cnn(CCO)c4)cc23)c1F.Cc1ccc(S(=O)(=O)O)cc1 | 6.077% | hygroscopic | –
2 | COc1cc(OC)c(F)c(Cc2c[nH]c3ncc(-c4cnn(CCO)c4)cc23)c1F.Cl | – | – | can be converted into the crystal form A of the compound of Formula (II)
3 | COc1cc(OC)c(F)c(Cc2c[nH]c3ncc(-c4cnn(CCO)c4)cc23)c1F | 3.829% and 3.928% | hygroscopic | –
